Data from US4061779A, “Naphthalene derivatives having anti-inflammatory activity” (Beecham Group Limited, priority 1973, dated 1977).
Where two headings read alike, the source gives them in different places.

Columns and labels:
Rat Paw Carrageenin = assay: standard Rat Paw Carrageenin Test, anti-inflammatory activity; type: in vivo
Text: (§1) Using a conventional Allen-Doisy Test, the Oestrogenic activity of certain compounds of the invention was ascertained. The anti-inflammatory activity of certain compounds of the invention was ascertained by using a standard Rat Paw Carrageenin Test.

oestrogenicity [1] = assay: Allen-Doisy Test, oestrogenic activity (mouse); type: in vivo
Text: as §1

oestrogenicity [2] = assay: Allen-Doisy Test, oestrogenic activity (rat); type: in vivo
Text: as §1

[3] = system: Phenyl-p-quinone Induced Writhing; assay: Phenyl-p-quinone Induced Writhing in Mice; type: in vivo; details: Mus musculus, po, read-out: ED50 for analgesic activity
Text: f. Phenyl-p-quinone Induced Writhing in Mice

[4] = system: release of corticosteroids from the adrenal gland; assay: Interactions with the Adrenal/Pituitary Axis; type: in vivo; details: 140 mg/kg p.o./day, five days
Text: h. Interactions with the Adrenal/Pitutary Axis

[5] = system: Cotton Pellet Induced Granuloma; assay: Cotton Pellet Induced Granuloma in Rats; type: in vivo, rat; details: 50 mg/kg p.o., day 0 to 5 days
Procedure: c. Cotton Pellet Induced Granuloma in Rats
Consistent activity (reducing induced granuloma by more than 30%) has been observed at 50 mg/kg p.o. dosed from day 0 to 5 days.

Adjuvant arthritis = assay: Adjuvant Arthritis in Rats; type: in vivo, rat; details: 60 mg/kg p.o. daily
Procedure: d. Adjurant Arthritis in Rats
Adjuvant arthritis is reduced in rats by the daily administration of doses of 60 mg/kg p.o.

[6] = system: gastric secretion / gastric damage; assay: Gastric Damage in Pyloric Ligated Rats; type: in vivo; details: up to 200 mg/kg intra-duodenally, pyloric ligated rat
Text: 1. Gastric Damage in Pyloric Ligated Rats

UV Induced Erythrema = UV Induced Erythrema in Guinea Pigs; type: in vivo, guinea pig; details: Cavia porcellus, po
Text: b. UV Induced Erythrema in Guinea Pigs

endometrium = assay: Gestagenic Activity in Rabbits (Clauberg test); type: in vivo, rabbit; details: 200 mg/kg p.o., 4 days
Text: k. Gestagenic Activity in Rabbits

[7] = system: cultured mouse peritoneal macrophages; assay: Macrophage Plasminogen Activator Release Test; type: cell-based; details: 1 mg/ml
Text: e. Macrophage Plasmongen Activator Release Test
On the test system of J. D. Vassalli et al., Cell, 8, 271-281 (1976), the compound […] caused 90% inhibition of the release of plasmogen activator from cultured mouse peritoneal macrophages.

[8] = system: Carrageenin Induced Oedema; assay: Carrageenin Induced Oedema in Rats; type: in vivo, rat
Text: a. Carrageenin Induced Oedema in Rats

uterine weight = assay: Oestrogenic Test in Rats (ovariectomised rats, uterine weight); type: in vivo, rat; details: 200 mg/kg p.o. and 600 mg/kg p.o., 4 days
Text: i. Oestrogenic Test in Rats

[9] = system: pyresis induced by Shigella endotoxin; assay: Anti-pyretic Effect in Rabbits; type: in vivo, rabbit; details: doses down to 100 mg/kg p.o.
Text: g. Anti-pyretic Effect in Rabbits

gastro intestinal tract = assay: Long term toxicity tests, gastro-intestinal tolerance; type: in vivo, rat; details: 180 mg/kg p.o. for 28 days
[10] = system: gastric erosions or ulceration; assay: Ulcerogenic Activity in Rats; type: in vivo, rat; details: 250 or 500 mg/kg p.o.
Text: m. Ulcerogenic Activity in Rats.

[11] = General statements on gastro-intestinal irritation, oestrogenicity and anti-inflammatory activity; type: in vivo
[12] = system: seminal vesicles, prostate gland or levator ani muscles; assay: Anabolic/Androgenic Activity in Rats; type: in vivo, rat; details: 200 mg/kg p.o.
Text: j. Anabolic/Adrogenic Activity in Rats

COc1ccc2cc(C(C)C(C)=O)ccc2c1 (centres unmarked) [3-(6'-methoxy-2'-naphthyl)-butan-2-one, 3-(6'-methoxy-2'-napthyl)-butan-2-one]
Anti-inflammatory, rat carrageenan (Rat Paw Carrageenin; 100 mg/kg orally): Active | Oestrogenicity, Allan-Doisy test (oestrogenicity [1]; 50 mg/kg sub.cut.): Inactive | Oestrogenicity, Allan-Doisy test (oestrogenicity [2]; 600 mg/kg orally): Inactive

CCC(c1ccc2cc(OC)ccc2c1)C(C)(O)C(C)=O (centres unmarked) [3-hydroxy-3-methyl-4-(6'-methoxy-2'-naphthyl)-hexan-2-one]
Anti-inflammatory, rat carrageenan (Rat Paw Carrageenin; 100 mg/kg orally): Inactive | Oestrogenicity, Allan-Doisy test (oestrogenicity [1]; 50 mg/kg sub.cut.): Active

COc1ccc2cc(C(C)C(C)(O)C(C)=O)ccc2c1 (centres unmarked) [3-hydroxy-3-methyl-4-(6'-methoxy-2'-naphthyl)-pentan-2-one]
Anti-inflammatory, rat carrageenan (Rat Paw Carrageenin; 50 and 100 mg/kg orally): Active | Oestrogenicity, Allan-Doisy test (oestrogenicity [1]; 100 mg/kg sub.cut.): Active

COc1ccc2cc(C(C)CC(C)=O)ccc2c1 (centres unmarked) [4-(6'-methoxy-2'-naphthyl)-pentan-2-one]
Anti-inflammatory, rat carrageenan (Rat Paw Carrageenin; 50 mg/kg orally): Slightly Active | Anti-inflammatory, rat carrageenan (Rat Paw Carrageenin; 100 mg/kg orally, 1 hr. after dosing): Active | Anti-inflammatory, rat carrageenan (Rat Paw Carrageenin; 300 mg/kg orally): Active | Oestrogenicity, Allan-Doisy test (oestrogenicity [2]; 200 mg/kg orally): Inactive | Oestrogenicity, Allan-Doisy test (oestrogenicity [2]; 300 mg/kg orally): Active

COc1ccc2cc(CCC(C)=O)ccc2c1 [4-(6'-methoxy-2'-naphthyl)butan-2-one]
ED50 ([3]; mice): ~110 mg/kg | interference with release of corticosteroids in response to ACTH administration or to ether stress [4]: does not interfere | changes in body weight or in weight of spleen, thymus, kidney, liver or adrenal glands [5]: not accompanied by marked changes | Adjuvant arthritis (Adjuvant arthritis): reduced | overt gastric damage [6]: nor did overt gastric damage result | systemically mediated effect on the volume of gastric secretion [6]: have not been found to have a systemically mediated effect | ED50 (UV Induced Erythrema): 9 to 15 mg/kg | uterine hypertrophy or progestational changes in the endometrium (endometrium): did not result in uterine hypertrophy or progestational changes in the endometrium | inhibition of the release of plasminogen activator [7]: slight inhibition | reduction in induced oedema volume ([8]; 5, 10, 35 and 70 mg/kg p.o.): significant reduction | ED25 ([8]; Rattus norvegicus, po, rats): 7 to 10 mg/kg | Activity in adrenalectomised rats ([8]; adrenalectomised rats): Activity is maintained | increase in uterine weight (uterine weight): did not result in any increase in uterine weight | reduction of pyresis induced by intravenous Shigella endotoxin [9]: reduced pyresis | gastro intestinal tolerance (gastro intestinal tract): well tolerated | gastric erosions, longer contact times ([10]; longer than 4 hours): in some cases to some degree of erosions | gastric erosions or ulceration ([10]; rats starved 18 hours, 1 or 4 hours after dosing): did not give rise to gastric erosions or ulceration | oestrogenic effects or gastric-irritant effects ([11]; at the therapeutic dose): not causing either oestrogenic effects or pronounced gastric-irritant effects | anti-inflammatory activity ([11]; general statement): good spectrum of anti-inflammatory activity | anti-pyretic and analgesic activity ([11]; general statement): anti-pyretic and analgesic activity | hormone like activity ([11]; general statement): free of hormone like activity | therapeutic ratio based on gastro intestinal irritancy ([11]; general statement): good therapeutic ratio | increase in weight of seminal vesicles, prostate gland or levator ani muscles ([12]; 4 days, castrated young male rats): did not result in any increase | interference with androgenic/anabolic activity of concomitantly administered testosterone ([12]; testosterone 1 mg/kg s.c.): did not interfere

COc1ccc2cc(C=CC(C)=O)ccc2c1 [4-(6-Methoxy-2-naphthyl)-3-buten-2-one]
Anti-inflammatory, rat carrageenan (Rat Paw Carrageenin; 300 mg/kg orally): Active | Oestrogenicity, Allan-Doisy test (oestrogenicity [2]; 300 mg/kg orally): Inactive

CC(=O)Oc1ccccc1C(=O)O [ASPIRIN, acetylsalicylic acid, reference compound]
ED50 [3]: ~60 mg/kg

COc1ccc2cc(/C(C)=C/C(C)=O)ccc2c1 [trans-4-(6'-methoxy-2'-naphthyl)-pent-3-ene-2-one]
Anti-inflammatory, rat carrageenan (Rat Paw Carrageenin; 100 mg/kg orally): Active | Oestrogenicity, Allan-Doisy test (oestrogenicity [1]; 100 mg/kg sub.cut.): Inactive
